Data on 6 compounds can be found in article PMC4091765 (Methods in molecular biology (Clifton, N.J.), 2013).

pKi: −log10 of the molar value.

The target of one experiment is PDE9A (Homo sapiens, UniProt O76083). Description: PDE assay using isothermal titration calorimetry. The following applies: ITC; for pKi: compound as inhibitor of PDE9; for Km: compound as substrate. In general terms: Isothermal titration calorimetry measures the heat released or taken up as one component is titrated into another.
The target of another experiment is PDE8A (Homo sapiens, UniProt O60658). Nature of the experiment: PDE assay using isothermal titration calorimetry. The following applies: ITC, compound as substrate; n.h. = not hydrolyzed.
A further experiment concerns PDE5. The following applies: ITC, cited from earlier work.
The next experiment has as its system PDEs. Nature of the experiment: ITC PDE assays, summary over the PDE panel. The following applies: result in words.
The subject of the next experiment is PDE10. The following applies: ITC, compound as substrate; cited from earlier work.
Another experiment deals with PDE4D. The following applies: ITC, compound as substrate; n.h. = not hydrolyzed; cited from earlier work.
The subject of another experiment is PDE2A. The following applies: ITC, compound as substrate; cited from earlier work.
The subject of a further experiment is PDE1C. The following applies: ITC, compound as substrate; cited from earlier work.
Another experiment concerns PDE1A. The following applies: ITC, compound as substrate; cited from earlier work.
The test system of the next experiment is PDE6. The following applies: ITC, compound as substrate, cited from earlier work.
In a further experiment the test system is PDE1B. The following applies: ITC, compound as substrate; cited from earlier work.

Sequence of PDE8A (O60658 whole entry, species assumed): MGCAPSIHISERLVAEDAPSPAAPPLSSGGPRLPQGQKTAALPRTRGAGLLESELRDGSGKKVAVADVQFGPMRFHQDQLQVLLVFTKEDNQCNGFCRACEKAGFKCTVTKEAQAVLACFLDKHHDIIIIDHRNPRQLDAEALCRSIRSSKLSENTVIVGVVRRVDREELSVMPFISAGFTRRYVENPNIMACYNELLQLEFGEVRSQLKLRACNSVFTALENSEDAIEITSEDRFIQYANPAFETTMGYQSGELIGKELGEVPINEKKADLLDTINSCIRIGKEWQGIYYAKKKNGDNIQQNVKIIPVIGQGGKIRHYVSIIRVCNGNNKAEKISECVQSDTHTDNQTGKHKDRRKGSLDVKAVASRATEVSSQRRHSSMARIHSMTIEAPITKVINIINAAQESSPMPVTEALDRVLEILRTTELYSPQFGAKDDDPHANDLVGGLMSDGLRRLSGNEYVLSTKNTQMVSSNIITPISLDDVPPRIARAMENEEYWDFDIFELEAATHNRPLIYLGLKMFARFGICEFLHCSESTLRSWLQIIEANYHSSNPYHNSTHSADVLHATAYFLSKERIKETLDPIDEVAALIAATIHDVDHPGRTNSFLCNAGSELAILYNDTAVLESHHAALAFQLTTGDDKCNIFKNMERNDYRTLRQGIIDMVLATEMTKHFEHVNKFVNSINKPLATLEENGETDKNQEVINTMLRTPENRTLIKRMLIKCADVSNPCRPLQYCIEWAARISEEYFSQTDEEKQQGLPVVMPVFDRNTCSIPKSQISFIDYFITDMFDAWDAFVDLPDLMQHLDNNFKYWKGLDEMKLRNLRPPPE
Sequence of PDE9A (O76083 whole entry, species assumed): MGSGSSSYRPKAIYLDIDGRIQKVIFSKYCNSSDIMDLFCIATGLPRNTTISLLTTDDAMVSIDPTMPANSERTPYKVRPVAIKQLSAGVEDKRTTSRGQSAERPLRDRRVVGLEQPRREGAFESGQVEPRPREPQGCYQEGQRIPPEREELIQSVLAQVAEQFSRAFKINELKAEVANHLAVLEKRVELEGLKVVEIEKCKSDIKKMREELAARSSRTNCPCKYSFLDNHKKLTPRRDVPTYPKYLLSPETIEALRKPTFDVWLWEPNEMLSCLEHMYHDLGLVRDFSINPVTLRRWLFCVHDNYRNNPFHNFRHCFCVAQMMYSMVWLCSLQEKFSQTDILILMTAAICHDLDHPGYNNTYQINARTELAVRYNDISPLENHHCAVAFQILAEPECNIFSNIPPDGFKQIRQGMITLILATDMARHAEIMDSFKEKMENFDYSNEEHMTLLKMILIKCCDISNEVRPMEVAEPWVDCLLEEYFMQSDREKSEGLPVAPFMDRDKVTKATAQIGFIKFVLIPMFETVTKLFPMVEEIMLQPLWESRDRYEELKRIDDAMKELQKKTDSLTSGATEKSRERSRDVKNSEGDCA

Usually pKi stands for −log10 of the Ki, conventionally taken in molar units. Higher therefore signals a small Ki. On PDE9A, `Nc1nc2c(nc(Sc3ccc(Cl)cc3)n2C2O[C@@H]3COP(=O)(O)O[C@H]3[C@H]2O)c(=O)[nH]1` (stereo in doubt) [8-pCPT-cGMP] gave a pKi of 5.89.

By Km is commonly meant the substrate concentration at which the rate is half of its maximum. For `Nc1nc2c(nc(Br)n2[C@@H]2O[C@@H]3COP(=O)(O)O[C@H]3[C@H]2O)c(=O)[nH]1` [8-Br-cGMP], the Km at PDE8A turned out to be 0.55 µM. At PDE9A, this compound showed a pKi of 6.11.

On to `CO[C@@H]1[C@@H]2OP(=O)(O)OC[C@H]2O[C@H]1n1c(Sc2ccc(Cl)cc2)nc2c(N)ncnc21` [8-pCPT-2-0-Me cAMP], for which the “substrate property for PDE5” value in the experiment with PDE5 (result in words) is on record as “rather good substrate for PDE5”.

On to `Nc1ncnc2c1nc(Br)n2[C@@H]1O[C@@H]2COP(=O)(O)O[C@H]2[C@H]1O` [8Br-cAMP], for which the Km at PDE9A turned out to be 5.99 µM.

Take `COC1C2OP(O)(=S)OCC2OC1n1c(Sc2ccc(Cl)cc2)nc2c(N)ncnc21` (stereo not shown) [Sp-8-pCPT-2-0-Me-cAMPS]: the “substrate property for PDEs” value in the experiment with PDEs (any PDE of the panel) is “not a substrate for any PDE”. In addition, the “inhibition of PDEs” value in the experiment on PDEs (several PDEs of the panel) is on record as “quite a good inhibitor of several of them”.

For orientation: Vmax means the top rate of the reaction or transport when substrate is in excess. `Nc1nc2c(ncn2[C@@H]2O[C@@H]3COP(=O)(O)O[C@H]3[C@H]2O)c(=O)[nH]1` [cGMP]: the Km with PDE10 was 1.1 µM; at PDE8A, “n.h”; in the experiment with PDE4D it was “n.h”; in the experiment with PDE2A, 31 µM; with PDE1C, 4.6 µM; with PDE1A, 8.2 µM. Further, the Km on PDE9A is 0.2 µM; in the experiment with PDE6, 10 µM; in the experiment with PDE1B, 5.4 µM; with PDE5 (compound as substrate), 2 µM. Besides, the Vmax is 1.6 ± 0.11 µM/min/mg in the experiment on PDE10; “n.h” at PDE8A; “n.h” with PDE4D; 176 ± 31 µM/min/mg with PDE2A; 1.4 ± 1.0 µM/min/mg in the experiment with PDE1C; 20 ± 1.0 µM/min/mg in the experiment on PDE1A. Besides, the Vmax with PDE6 (Vmax normalized, cGMP as substrate = 1) is 1.0 +/− 1.1; in the experiment on PDE1B, 2.6 ± 0.7 µM/min/mg.
